{"source": "patent US12454539B2", "about": "“Controlled-delivery cromakalim prodrugs” (Qlaris Bio, Inc., priority 2019, dated 2025)", "origin": "cited, not measured here", "key": {"[1]": {"tested_on": "normotensive mouse model", "conditions": "once daily dosing"}, "[2]": {"tested_on": "isolated rat mesenteric lymph vessels", "conditions": "increasing concentrations"}, "[3]": {"tested_on": "KATP channels", "conditions": "membrane patches from rabbit mesenteric arterial smooth muscle cells, in the presence of ATP"}}, "data": [{"smiles": "CC1(C)Oc2ccc(C#N)cc2[C@@H](N2CCCC2=O)[C@@H]1OP(=O)(O)O", "note": "[CKLP1]", "values": [{"measurement": "intraocular pressure (IOP)", "setting": "[1]", "value": "lower intraocular pressure"}, {"measurement": "solubility in water", "value": "more water soluble than levcromakalim"}]}, {"smiles": "CC1(C)Oc2ccc(C#N)cc2C(N2CCCC2=O)C1O", "note": "(stereo not shown) [Cromakalim, cromakalim]", "values": [{"measurement": "contractions of lymph vessels", "setting": "[2]", "value": "abolished the contractions of the vessels"}, {"measurement": "increase of open-state probability (Popen) of single KATP channels", "setting": "[3]", "value": "more than 9 fold"}]}]}
